The values below are quoted from earlier work in patent US12194002B2, “Compositions and methods to improve the therapeutic benefit of suboptimally administered chemical compounds including substituted hexitols such as dibromodulcitol” (priority 2011, dated 2025).

The target of data set [1] is JAK2V617F mutant of the JAK2 tyrosine kinase (Homo sapiens, UniProt O60674, V617F).

SMILES strings stand for the structures.

JAK2V617F mutant of the JAK2 tyrosine kinase, sequence (O60674 whole entry V617F): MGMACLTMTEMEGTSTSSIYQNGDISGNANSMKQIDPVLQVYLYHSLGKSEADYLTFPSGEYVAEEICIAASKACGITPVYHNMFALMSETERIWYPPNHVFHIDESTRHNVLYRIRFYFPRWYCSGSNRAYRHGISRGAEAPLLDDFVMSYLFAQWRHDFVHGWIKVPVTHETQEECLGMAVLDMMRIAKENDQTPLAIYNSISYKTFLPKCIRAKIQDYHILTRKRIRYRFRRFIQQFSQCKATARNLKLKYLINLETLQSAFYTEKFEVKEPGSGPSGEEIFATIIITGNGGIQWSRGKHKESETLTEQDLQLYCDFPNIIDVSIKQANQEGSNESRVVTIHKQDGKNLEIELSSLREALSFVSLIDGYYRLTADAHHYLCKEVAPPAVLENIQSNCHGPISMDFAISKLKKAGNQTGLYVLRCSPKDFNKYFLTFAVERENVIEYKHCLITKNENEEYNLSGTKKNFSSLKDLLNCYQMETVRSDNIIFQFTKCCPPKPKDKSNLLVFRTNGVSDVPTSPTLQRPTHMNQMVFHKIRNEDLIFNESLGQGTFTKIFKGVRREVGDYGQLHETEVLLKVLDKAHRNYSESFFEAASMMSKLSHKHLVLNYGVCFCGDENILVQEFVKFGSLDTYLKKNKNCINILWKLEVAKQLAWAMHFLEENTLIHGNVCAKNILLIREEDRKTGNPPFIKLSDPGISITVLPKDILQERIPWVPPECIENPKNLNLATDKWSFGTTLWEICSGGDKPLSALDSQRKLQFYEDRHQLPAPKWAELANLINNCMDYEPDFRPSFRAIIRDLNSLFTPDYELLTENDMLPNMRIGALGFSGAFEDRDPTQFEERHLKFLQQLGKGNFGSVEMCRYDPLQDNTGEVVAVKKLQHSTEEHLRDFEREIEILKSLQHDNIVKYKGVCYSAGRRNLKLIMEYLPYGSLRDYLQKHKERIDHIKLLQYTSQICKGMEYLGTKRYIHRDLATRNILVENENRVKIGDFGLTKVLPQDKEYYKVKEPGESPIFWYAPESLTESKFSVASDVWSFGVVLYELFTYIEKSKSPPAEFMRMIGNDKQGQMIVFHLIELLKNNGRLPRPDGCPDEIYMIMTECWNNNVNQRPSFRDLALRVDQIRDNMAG

`C#Cc1cccc(Nc2ncnc3cc(OCCOC)c(OCCOC)cc23)c1` [Tarceva, N-(3-ethynylphenyl)-6,7-bis(2-methoxyethoxy)quinazolin-4-amine]: the “Inhibition of JAK2V617F mutant” value in data set [1] is given as “potent inhibitor”. With `O[C@H]([C@H](O)[C@@H](O)CBr)[C@H](O)CBr` [dibromodulcitol], the “Absorption by the oral route” value was “rapid and fairly complete”.
